Laboratory results as given in patent US20110217300A1, “Quinazolinone Compounds and Methods of Use Thereof” (priority 2007, published 2011).
Like-named read-outs stand apart in the source and are kept apart here.

Columns and labels:
A375 xenograft = assay: Xenograft model; assay type: in vivo, mice; settings: A375, Skin; procedures and dosages of Examples 106-108
MIA-PaCa2 xenograft = assay: Xenograft model; assay type: in vivo, mice; settings: MIA-PaCa2, Pancreas; procedures and dosages of Examples 106-108
Method: Six-week old female athymic nude mice (NCR nu/nu; Charles River Laboratory, Wilmington, Mass.) were acclimated to the animal housing facility for at least 1 week before the study. Efficacy studies were performed in athymic mice bearing PACA2 tumor xenografts to determine the effect of compound on tumor growth. Tumor cells (1×10^7 PACA2 cells/animal) were inoculated subcutaneously on day 0. Tumor dimensions were measured by a digital microcaliper, and tumor volumes were calculated as length×width^2/2. […] Results are expressed as mean tumor volume±SE. To assess differences in tumor size between groups, a Mann-Whitney non-parametric t test was performed and significance was assessed for p values <0.05. Tumor size was evaluated periodically during treatment at the indicated days post-inoculation. […]
Six weeks old female athymic nude mice (NCR nu/nu) received from Charles River Laboratory, acclimated to the animal housing facility for one week before initiation of the study. […] Tumor dimensions were measured three times weekly by a digital microcaliper, and tumor volumes were calculated as length×width^2/2. […] Results are expressed as mean tumor volume±SE. To assess differences in tumor size between groups, student's t test was performed and significance was assessed for p values <0.05. Tumor size was evaluated periodically during treatment at the indicated days post-inoculation. […]

[1] = tested on: MDA-MB-231 tumor xenografts; assay: MDA-MB-231 tumor xenograft efficacy study; assay type: in vivo, mice
Method: Six weeks old female athymic nude mice (NCR nu/nu) received from Charles River Laboratory, acclimated to the animal housing facility for one week before initiation of the study. Mice were housed in sterile cages of 4 each with autoclaved bedding, provided with autoclaved food and water ad libitum. Efficacy studies were performed in athymic mice bearing MDA-MB-231 tumor xenografts to determine the effect of compound on tumor growth. Tumor cells (5×10^6 MDA-MB-231 cells/animal) were inoculated subcutaneously on day 0. Tumor dimensions were measured three times weekly by a digital microcaliper, and tumor volumes were calculated as length×width^2/2. When tumors reached a volume of ˜100 mm^3, mice were randomized into groups and treated 3× weekly (Monday-Wednesday-Friday, followed by a 2-day dosing holiday) intraperitoneally. With either vehicle control or 3 mg/kg, 6 mg/kg and 12 mg/kg compound formulated in DMA/PEG400/water (4:8:88). Results are expressed as mean tumor volume±SE. To assess differences in tumor size between groups, student's t test was performed and significance was assessed for p values <0.05. Tumor size was evaluated periodically during treatment at the indicated days post-inoculation. Results are represented as the mean of tumor volume in mm^3±SE of several tumors (n=8) in function of the treatment period.
The in vivo activity of N-(3-amino-propyl)-3-chloro-N—[(R)-1-(7-chloro-4-oxo-3-phenylamino-3,4-dihydro-quinazolin-2-yl)-but-3-ynyl]-2-fluoro-benzamide was tested using xenograft models using cell lines as reported in Table 4. The experiments were performed using the general procedures and dosages of Examples 106-108.

PLC/PRF/5 = assay: MTS cell viability assay; assay type: cell-based; settings: Homo sapiens, liver
Method: (§1) Cell viability was determined by measuring the activity of dehydrogenase enzymes in metabolically active cells using a tetrazolium compound, MTS. The assay was performed as described in Promega Technical Bulletin No. 169 (CellTiter 96 Aqueous Non-Radioactive Cell Proliferation Assay). Two human cancer cell lines were assayed (see, Table 1). Cells were maintained at 37° C. and 5% CO2 in DMEM media (4.5 g/L glucose) supplemented with 10% heat-inactivated FBS, 10 mM L-glutamine, and 10 mM Hepes pH 7.5. Briefly, cells were seeded in 96-well plates as set forth in Table 1 and incubated for 16-24 hours. Candidate compounds were serially diluted in DMSO, further diluted in cell culture media, and then added to cells (final DMSO concentration of 0.33%). Cells were incubated in the presence of candidate compound for 72 hours. MTS stock solution (MTS 2 gm/L, PMS […] in PBS) was added to the cells (final concentration MTS […] and PMS 7.67 mg/L) and incubated for 4 hours. SDS was added to a final concentration of 1.4% and absorbance at 490 nm was measured within two hours using a plate reader. […] GI50 values were given in Table 2 for the compounds listed. The Compound Numbers in Table 2 correspond to the numbers listed parenthetically in the Example titles. Where multiple measurements were made by different technicians, both values are given.
(§2) Cell viability was determined for N-(3-amino-propyl)-3-chloro-N—[(R)-1-(7-chloro-4-oxo-3-phenylamino-3,4-dihydro-quinazolin-2-yl)-but-3-ynyl]-2-fluoro-benzamide (compound I of Table 2). The cell viability assay of Example 105 was used. GI50 was determined using a variety of cell lines. Cells were plated at 100-5000 cells per well. At least 2 replicates were performed. Where multiple measurements were made by different technicians, both values are given.

HCT-116 = assay: MTS cell viability assay; assay type: cell-based; settings: Homo sapiens, colon
Method: as §1, §2

HPAF-II = assay: MTS cell viability assay; assay type: cell-based; settings: Homo sapiens, pancreas
Method: as §1, §2

PACA2 tumor xenografts = assay: PACA2 tumor xenograft efficacy study (Example 107); assay type: in vivo, mice; settings: 3 mg/kg or 12.5 mg/kg intraperitoneally 3x weekly
Method: Six weeks old female athymic nude mice (NCR nu/nu) received from Charles River Laboratory, acclimated to the animal housing facility for one week before initiation of the study. Mice were housed in sterile cages of 4 each with autoclaved bedding, provided with autoclaved food and water ad libitum. Efficacy studies were performed in athymic mice bearing PACA2 tumor xenografts to determine the effect of compound on tumor growth. Tumor cells (1×10^7 PACA2 cells/animal) were inoculated subcutaneously on day 0. Tumor dimensions were measured three times weekly by a digital microcaliper, and tumor volumes were calculated as length×width^2/2. When tumors reached a volume of ˜300 mm^3, mice were randomized into groups and treated 3× weekly (Monday-Wednesday-Friday, followed by a 2-day dosing holiday) intraperitoneally. With either vehicle control or 3 mg/kg and 12.5 mg/kg compound formulated in DMA/PEG400/water (20:40:40). Results are expressed as mean tumor volume±SE. To assess differences in tumor size between groups, student's t test was performed and significance was assessed for p values <0.05. Tumor size was evaluated periodically during treatment at the indicated days post-inoculation. Results are represented as the mean of tumor volume in mm^3±SE of several tumors (n=10) in function of the treatment period. […] (See FIG. 1B).

NCI-H460 = assay: MTS cell viability assay; assay type: cell-based, human
Method in brief: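 Human cancer cells plated at 100-5000 cells/well, left 16-24 h, then exposed 72 h to serially diluted compound (final DMSO 0.33%) in DMEM with 10% FBS at 37° C. MTS/PMS added for 4 h, SDS-stopped, absorbance read at 490 nm; GI50 derived, at least 2 replicates.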

DU145 xenograft = assay: Xenograft model; assay type: in vivo, mice; settings: DU145, Prostate; procedures and dosages of Examples 106-108

## C#CC[C@H](c1nc2cc(Cl)ccc2c(=O)n1Nc1ccccc1)N(CCCN)C(=O)c1cccc(Cl)c1F [Compound 1, N-(3-Amino-propyl)-3-chloro-N—[(R)-1-(7-chloro-4-oxo-3-phenylamino-3,4-dihydro-quinazolin-2-yl)-but-3-ynyl]-2-fluoro-benzamide]
A375 xenograft
  Xenograft Outcome (approximate percent growth inhibition): small
MIA-PaCa2 xenograft
  Xenograft Outcome (approximate percent growth inhibition): ~90%
[1]; 3 mg/kg, 6 mg/kg or 12 mg/kg intraperitoneally 3x weekly, MDA-MB-231 xenograft mice
  tolerability of doses: well-tolerated
[1]; 3 mg/kg, 6 mg/kg or 12 mg/kg intraperitoneally 3x weekly, tumors ~100 mm^3 at start, FIG. 2
  tumor growth compared to the vehicle control group: Significant reductions in tumor growth
[1]; MDA-MB-231, Breast, procedures and dosages of Examples 106-108
  Xenograft Outcome (approximate percent growth inhibition): ~80%
PLC/PRF/5
  GI50: 135 nM
HCT-116
  GI50: 74 nM
HPAF-II
  GI50: 2060 nM
PACA2 tumor xenografts; PACA2 xenograft mice
  tolerability of doses: well-tolerated
PACA2 tumor xenografts; tumors ~300 mm^3 at start, FIG. 1B
  tumor growth compared to the vehicle control group: Significant reductions in tumor growth
NCI-H460; Homo sapiens, NCI-H460, 72 h, read-out: MTS NCI H460 GI50, NCI-H460 non small cell lung, 72 hours
  GI50: 360 nM
NCI-H460; Homo sapiens, NCI-H460, read-out: Average GI50, NCI-H460, Large cell lung carcinoma (Table 3)
  GI50: 1100 nM
NCI-H460; read-out: Average GI50, NCI-H460, Large cell lung carcinoma (Table 3), listed as I
  GI50: 1050 nM
DU145 xenograft
  Xenograft Outcome (approximate percent growth inhibition): ~75%
